Reference: US11713293B2, “Substituted biaryl sulfonamides and the use thereof” (NovoMedix, LLC, priority 2012, dated 2023)

Legend:
[1] = test system: triple negative breast cancer cell line MDA-MB-468; test: Cell-based IC50 assay, adherent cells, MDA-MB-468; settings: Homo sapiens, 72 hours, CellTiter 96 Aqueous One, metabolically active cells decreased by 50%
Protocol: (§1) In one embodiment, the IC50s of the compounds provided herein were determined in cell-based assays using adherent cells. In one embodiment, the activity of the compounds provided herein were determined in a cell-based assay using the triple negative breast cancer cell line MDA-MB-468. In one embodiment, the activity of the compounds provided herein were determined in a cell-based assay using the triple negative breast cancer cell line MDA-MB-231. In one embodiment, the activity of the compounds provided herein were determined in a cell-based assay using the triple negative breast cancer cell line 4T1.
(§2) In one embodiment, the cell-based assay may be carried out as provided herein. On day 0, cells were seeded at 20,000 cells per well in 100 μL of media into individual wells of a 96-well tissue culture plate. The next day, compounds were diluted to twice the desired final concentration and added in 100 μL of media for a final volume of 200 μL. Standard solutions for each compound were prepared at 1000× concentration in DMSO. The highest concentration was […]. Serial 1:1 dilutions were made from there for a 6- or 9-point curve (e.g., 20 mM, 10 mM, 5 mM, etc). Compounds were then diluted 1:500 in media, and 100 μL of the resulting solution was added to each well for a final dilution of 1:1000. Each concentration of compound was tested in triplicate. Cells were incubated at 37° C. with 5% CO2. After 72 hours, 20 μL of CellTiter 96 Aqueous One Solution Cell Proliferation Assay (Promega) was added to each well. Cells were placed back in the incubator, and the absorbance at 490 nm was read after 2-3 hours. The concentration of compound that decreased the number of metabolically active cells by 50% was determined and reported as the IC50. “Percent Viability” was determined by subtracting the average background value (media only) and expressed as a ratio to the average value obtained from cells treated with only DMSO.
The IC50s of the compounds provided herein and some reference compounds were determined in cell-based assay using triple negative breast cancer cell line MDA-MB-468.

[2] = test system: triple negative breast cancer cell line MDA-MB-231; test: Cell-based IC50 assay, adherent cells, MDA-MB-231; settings: Homo sapiens, 72 hours, CellTiter 96 Aqueous One
Protocol: as §1, §2

[3] = test system: triple negative breast cancer cell line 4T1; test: Cell-based IC50 assay, adherent cells, 4T1; settings: 72 hours, CellTiter 96 Aqueous One
Protocol: as §1
In one embodiment, the cell-based assay may be carried out as provided herein. On day 0, cells were seeded at 20,000 cells per well in 100 μL of media into individual wells of a 96-well tissue culture plate. The next day, compounds were diluted to twice the desired final concentration and added in 100 μL of media for a final volume of 200 μL. Standard solutions for each compound were prepared at 1000× concentration in DMSO. The highest concentration was 30 mM. […] Cells were placed back in the incubator, and the absorbance at 490 nm was read after 2-3 hours. […] “Percent Viability” was determined by subtracting the average background value (media only) and expressed as a ratio to the average value obtained from cells treated with only DMSO.

[4] = PK study and oral bioavailability, mouse; type: in vivo; settings: plasma 0 to 6 h
[5] = PK study and oral bioavailability, rat; type: in vivo; settings: plasma 0 to 6 h
[6] = test system: m7GpppN-capped luciferase mRNA reporter; test: In vitro HeLa cell extract translation system, translation inhibition; type: biochemical; settings: concentration not given
Protocol: In one embodiment, the compounds provided herein were assayed for translation inhibition activity using an in vitro HeLa cell extract translation system with an m7GpppN-capped luciferase mRNA reporter.

[7] = IV 5 mg/kg, read-out: IV Administration (5 mg/kg) C0
[8] = IV 5 mg/kg, read-out: IV Administration (5 mg/kg) T½ (converted)
[9] = PO 25 mg/kg, read-out: PO Administration (25 mg/kg) C0

SMILES | IC50 [1] | also measured
Cc1c(NS(=O)(=O)c2c(C(C)C)cc(C(C)C)cc2C(C)C)cc(C(F)(F)F)cc1C(F)(F)F [Compound 2, N-[2-Methyl-3,5-bis(trifluoromethyl)phenyl]-2,4,6-triisopropyl-benzenesulfonamide] | 2 µM | IC50 [2]: 6 µM; IC50 [3]: 5 µM; C0 [4, 7]: 53700 ng/mL; half-life [4, 8]: 2.9 h; C0 [4, 9]: 3610 ng/mL; half-life ([4]; PO 25 mg/kg, read-out: PO Administration (25 mg/kg) T½ (converted)): 2.4 h; C0 [5, 7]: 68900 ng/mL; half-life [5, 8]: 1.6 h; C0 [5, 9]: 27600 ng/mL; half-life ([5]; PO 25 mg/kg, read-out: PO Administration (25 mg/kg) T½): > 6 h
CC(C)c1cc(C(C)C)c(S(=O)(=O)Nc2cc(C(F)(F)F)cc(C(F)(F)F)c2Cl)c(C(C)C)c1 [Compound 3, N-[2-Chloro-3,5-bis(trifluoromethyl)phenyl]-2,4,6-triisopropyl-benzenesulfonamide] | 4.5 µM | IC50 [2]: 3 µM
CC(C)c1cc(C(C)C)c(NS(=O)(=O)c2cc(C(F)(F)F)cc(C(F)(F)F)c2)c(C(C)C)c1 [Compound 4, 3,5-Bis(trifluoromethyl)-N-(2,4,6-triisopropylphenyl)benzenesulfonamide] | 12 µM | –
CC(C)c1cc(C(C)C)c(S(=O)(=O)Nc2cc(C(F)(F)F)cc(C(F)(F)F)c2Br)c(C(C)C)c1 [Compound 5, N-[2-Bromo-3,5-bis(trifluoromethyl)phenyl]-2,4,6-triisopropyl-benzenesulfonamide] | 5 µM | –
Cc1cc(C(C)(C)C)cc(C)c1S(=O)(=O)Nc1cc(C(F)(F)F)cc(C(F)(F)F)c1 [Compound 6, N-[3,5-Bis(trifluoromethyl)phenyl]-4-tert-butyl-2,6-dimethyl-benzenesulfonamide] | 7 µM | –
CCc1cccc(CC)c1S(=O)(=O)Nc1cc(C(F)(F)F)cc(C(F)(F)F)c1C [Compound 7, 2,6-Diethyl-N-[2-methyl-3,5-bis(trifluoromethyl)phenyl]benzenesulfonamide] | 2 µM | –
CCc1cccc(CC)c1S(=O)(=O)Nc1cc(C(F)(F)F)cc(C(F)(F)F)c1 [Compound 8, N-[3,5-Bis(trifluoromethyl)phenyl]-2,6-diethyl-benzenesulfonamide] | 1.5 µM | –
Cc1cc(C(C)(C)C)cc(C)c1S(=O)(=O)Nc1cc(C(F)(F)F)cc(C(F)(F)F)c1C [Compound 9, 4-Tert-butyl-2,6-dimethyl-N-[2-methyl-3,5-bis(trifluoromethyl)phenyl]benzenesulfonamide] | 5 µM | –
Cc1cc(C(C)(C)C)cc(C)c1S(=O)(=O)Nc1cc(C(F)(F)F)cc(C(F)(F)F)c1Cl [Compound 10, 4-Tert-butyl-N-[2-chloro-3,5-bis(trifluoromethyl)phenyl]-2,6-dimethyl-benzenesulfonamide] | 3 µM | –
O=S(=O)(Nc1cc(C(F)(F)F)cc(C(F)(F)F)c1)c1cc(C(F)(F)F)cc(C(F)(F)F)c1 [Reference compound 1] | > 20 µM | –
O=S(=O)(Nc1cc(C(F)(F)F)cc(C(F)(F)F)c1)c1c(Cl)cccc1Cl [Reference compound 2] | 10 µM | –
N#Cc1ccc(NS(=O)(=O)c2cc(C(F)(F)F)cc(C(F)(F)F)c2)cc1Cl [Reference compound 3] | > 20 µM | –
C[C@@H]1C[C@@H]([C@H](O)CC2CC(=O)NC(=O)C2)C(=O)[C@@H](C)C1 [cycloheximide, reference compound] | – | inhibition of luciferase activity (comparator) [6]: 99.3%

More lines, main results first:

IC50 [1] | SMILES | also measured
17 µM | Cc1cc(C)c(S(=O)(=O)Nc2cc(C(F)(F)F)cc(C(F)(F)F)c2)c(C)c1 [Reference compound 4] | –
> 20 µM | Cc1c(C)c(C)c(S(=O)(=O)Nc2cc(C(F)(F)F)cc(C(F)(F)F)c2)c(C)c1C [Reference compound 5] | –
> 20 µM | COc1ccc(OC)c(S(=O)(=O)Nc2cc(C(F)(F)F)cc(C(F)(F)F)c2)c1 [Reference compound 6] | –
14 µM | CC(C)c1cc(C(C)C)c(S(=O)(=O)Nc2ccc(Br)cc2)c(C(C)C)c1 [Reference compound 7] | –
> 20 µM | Cc1ccc(C)c(NS(=O)(=O)c2c(C(C)C)cc(C(C)C)cc2C(C)C)c1 [Reference compound 8] | –
> 20 µM | CC(C)c1cc(C(C)C)c(S(=O)(=O)Nc2cccc(F)c2)c(C(C)C)c1 [Reference compound 9] | –
> 20 µM | Cc1cc(C)c(NS(=O)(=O)c2c(C(C)C)cc(C(C)C)cc2C(C)C)c(C)c1 [Reference compound 10] | –
> 20 µM | CC(C)c1cc(C(C)C)c(S(=O)(=O)Nc2ccccc2F)c(C(C)C)c1 [Reference compound 11] | –
19 µM | Cc1c(Cl)cccc1NS(=O)(=O)c1c(C(C)C)cc(C(C)C)cc1C(C)C [Reference compound 12] | –
> 20 µM | CC(=O)Nc1ccc(S(=O)(=O)Nc2cc(C(F)(F)F)cc(C(F)(F)F)c2)cc1 [Reference compound 13] | –
